The results in this text go back to US10543262B2, “Combination therapy utilizing P2X7 peptides” (BIOSCEPTRE (AUST) PTY LTD, priority 2011, dated 2020).

The test concerns nfP2X7 receptors. The test is described as follows: ELISA of specific anti-nfP2X7 antibody response in patient serum after immunisation with peptide-KLH conjugate. The test is classed as in vivo, human. On the procedure: Peptide immunogen was synthesised to high purity in the form GHNYTTRNILPGLNITC (SEQ ID NO:2) to which was added the cross-linker maleimidocaproyl-N-hydroxysuccinimide (MCS) at the C-terminal Cys residue. The peptide was cross-linked to a carrier protein Keyhole Limpet Hemocyanin (KLH) such that the average percentage of peptide to total peptide-protein conjugate was 40%. This peptide or the alternative peptide […] (SEQ ID NO:5) similarly conjugated to KLH constituted selective epitope targets, primary and compound respectively that enabled differentiation of the nfP2X7 receptors to be made from native receptors.
The peptide-protein conjugate was added at a concentration of 2.5 mg/mL conjugate (1 mg/mL peptide) dropwise with thorough mixing in the adjuvant in an amount equal to 0.5 mL conjugate to 0.75 mL adjuvant containing 0.5 mg of target peptide epitope.
The immunisation schedule consisted of a primary inoculation (two injections subcutaneously and two injections intramuscularly) of a total of 0.5 mg peptide followed a month later with a boost applied the same way with 0.3 mg peptide. Serum samples were collected immediately prior to and a week post injections. Inoculation is ideally administered no less than a month after the final infusion of anti-nfP2X7 antibody to ensure no sequestration of the immunogen by residual specific anti-nfP2X7 antibody infusate.
Specific anti-nfP2X7 antibody responses were measured by ELISA. In brief, the ELISA plate was coated with specific target peptide epitope, either naked or conjugated to a carrier other than the one against which the antibody response was generated, over which patient serum is added in a descending concentration. After washing, an appropriate secondary anti-human antibody (anti-IgM or anti-IgG types) is applied to detect and determine the concentration of specific human anti-nfP2X7 antibody present in the patient serum in the form of IgM or IgG.
In general terms: ELISA stands for enzyme-linked immunosorbent assay.

[1] abbreviates: following the primary inoculation (0.5 mg peptide).

As to GHNYTTRNILPGLNITC, the “specific anti-nfP2X7 IgM concentration in patient serum (ELISA)” value (following the boost (0.3 mg peptide)) was “returned to a baseline of zero”. Moreover, the “specific anti-nfP2X7 IgG concentration in patient serum (ELISA)” value (following the boost, provided no nfP2X7 receptor sink is present on extant tumor) is on record as “higher concentration than the original IgM”. Moreover, under setting [1], the “specific anti-nfP2X7 IgG in patient serum (ELISA)” value is given as “no IgG is detectable” and the “specific anti-nfP2X7 IgM in patient serum (ELISA)” value is recorded as “a small amount of IgM is detected”. Besides, under “patient with moderate tumor burden, Week 13, 9 weeks post boost”, the “circulating anti-nfP2X7 antibody response in serum (ELISA)” value was “small level”. For the same sequence, the “circulating antibody present in serum (ELISA)” value (patient with moderate tumor burden, intermediate measurements Weeks 5 to 12) is listed as “little circulating antibody was present”. Also, the “antibodies to the peptide detected in serum (ELISA)” value (patient with moderate tumor burden, pre-boost serum at Week 4, 4 weeks post initial immunisation) was “No antibodies were detected”. Moreover, for the setting “patient with very small residual tumor burden, Week 5, 1 week post boost”, the “circulating antibody levels detected in serum (ELISA)” value is given as “much higher than in the patient who had a moderate tumor mass”. Moreover, the “specific endogenous anti-nfP2X7 antibody detected in the serum” value (patients without nfP2X7 receptor sink (original tumor cleared), after boost) is reported as about 5 mg/kg.
